According to the NIST ThermoML archive (doi:10.1007/s10765-011-0978-y):

Conditions: Fluid (supercritical or subcritical phases), Falling or rolling sphere viscometry

FCC(F)(F)F [1,1,1,2-tetrafluoroethane]
viscosity [mPa·s]
Conditions	10000 kPa	25000 kPa	50000 kPa	100000 kPa	150000 kPa	200000 kPa	250000 kPa	300000 kPa	350000 kPa	400000 kPa
293.15 K	0.255	0.3008	0.3631	0.5045	0.6605	0.8252	–	–	–	–
298.15 K	0.2368	0.2795	0.3435	0.4988	0.6459	0.819	0.9773	–	–	–
313.15 K	0.207	0.2461	0.3127	0.4302	0.5758	0.7155	0.8952	1.069	1.25	1.446
323.15 K	0.1805	0.2229	0.2852	0.3946	0.502	0.6252	0.7651	0.914	–	–
348.15 K	0.1405	0.1783	0.2343	0.3327	0.43	0.5368	0.6421	0.7647	0.8894	1.04
373.15 K	–	0.1531	0.2038	0.2931	0.3764	0.4649	0.5564	0.6468	0.7557	0.8715
398.15 K	–	–	0.1725	0.2544	0.3243	–	–	–	–	–
438.15 K	–	–	0.1458	0.2131	0.2789	0.3408	0.3977	0.4612	–	–
